This is an account of results in patent US10981926B2 (Janssen Pharmaceutica NV, priority 2016, dated 2021).

Molecules are shown by their SMILES. Bounds are passed on as bounds.

Assay type in all cases: cell-based
The target of assay [1] is T1, wild-type Androgen Receptor (AR-wt) (Homo sapiens (Human), UniProt P10275). The experiment in a line: LNCaP-AR-wt ANT reporter assay (antagonist mode). Particulars: for IC50: read-out: LNCaP-AR-wt ANT pIC50 (converted); for Emax: maximum % inhibition of R1881 control response over the tested concentration range, read-out: LNCaP-AR-wt ANT MAX % Inh. For orientation: In a reporter assay the amount or activity of a reporter protein is the signal.
T1 sequence (P10275 whole entry): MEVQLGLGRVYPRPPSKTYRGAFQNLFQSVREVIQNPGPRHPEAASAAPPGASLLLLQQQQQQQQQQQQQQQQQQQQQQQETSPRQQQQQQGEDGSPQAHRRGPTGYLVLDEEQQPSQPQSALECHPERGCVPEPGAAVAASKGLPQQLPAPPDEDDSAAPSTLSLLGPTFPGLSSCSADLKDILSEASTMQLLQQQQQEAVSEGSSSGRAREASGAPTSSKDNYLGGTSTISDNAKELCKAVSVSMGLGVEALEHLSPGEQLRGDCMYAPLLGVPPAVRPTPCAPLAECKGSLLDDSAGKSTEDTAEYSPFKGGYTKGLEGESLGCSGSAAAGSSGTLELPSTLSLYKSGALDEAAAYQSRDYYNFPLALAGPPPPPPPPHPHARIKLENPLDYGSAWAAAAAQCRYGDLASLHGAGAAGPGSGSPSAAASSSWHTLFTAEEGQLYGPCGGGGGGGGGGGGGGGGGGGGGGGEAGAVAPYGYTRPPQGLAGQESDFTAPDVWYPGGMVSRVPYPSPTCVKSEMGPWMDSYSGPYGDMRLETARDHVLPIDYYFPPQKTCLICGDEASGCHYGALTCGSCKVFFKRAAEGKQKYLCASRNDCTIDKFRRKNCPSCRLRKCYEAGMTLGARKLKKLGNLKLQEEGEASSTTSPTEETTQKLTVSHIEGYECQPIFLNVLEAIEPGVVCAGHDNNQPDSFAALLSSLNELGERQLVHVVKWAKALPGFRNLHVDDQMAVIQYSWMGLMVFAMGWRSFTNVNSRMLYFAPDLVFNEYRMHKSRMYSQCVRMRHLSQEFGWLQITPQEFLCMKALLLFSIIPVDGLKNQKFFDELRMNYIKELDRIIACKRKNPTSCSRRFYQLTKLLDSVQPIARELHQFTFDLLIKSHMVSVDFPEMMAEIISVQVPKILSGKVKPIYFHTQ

Assay [2] concerns the target T1, wild-type Androgen Receptor (AR-wt). The assay is described as follows: LNCaP-AR-wt AG reporter assay (agonist mode). Particulars: for EC50: read-out: LNCaP-AR-wt AG pEC50 (converted); for Emax: maximum % stimulation (agonist response) over the tested concentration range, read-out: LNCaP-AR-wt AG MAX % Stim.
The target of assay [3] is T2, F876L mutant Androgen Receptor (AR-F876L) (Homo sapiens (Human), UniProt P10275, F877L). The experiment in a line: LNCaP-AR-F876L ANT reporter assay (antagonist mode). As to conditions: for IC50: read-out: LNCaP-AR-F876L ANT pIC50 (converted); for Emax: maximum % inhibition of R1881 control response over the tested concentration range, read-out: LNCaP-AR-F876L ANT MAX % Inh.
T2 sequence (P10275 whole entry F877L): as the sequence (P10275 whole entry) above, with F877L counted along it

For assay [4], the target named is T2, F876L mutant Androgen Receptor (AR-F876L). The assay is described as follows: LNCaP-AR-F876L AG reporter assay (agonist mode). As to conditions: for EC50: read-out: LNCaP-AR-F876L AG pEC50 (converted); for Emax: maximum % stimulation (agonist response) over the tested concentration range, read-out: LNCaP-AR-F876L AG MAX % Stim.
The mark [5] stands for this setting: antagonist mode, pIC50 = −Log10(IC50 in Molar).
The mark [6] stands for this setting: agonist mode, pEC50 = −Log10(EC50 in Molar).

With `Cc1cc(N2C(=O)C3(CCC3)N(c3ccc(OC4CCSCC4)nc3)C2=S)cnc1C#N` [Cpd 21, 3-methyl-5-[5-oxo-8-(6-thian-4-yloxy(3-pyridyl))-7-thioxo-6,8-diazaspiro[3.4]oct-6-yl]pyridine-2-carbonitrile], the IC50 is 501 nM in assay [1] (setting [5]) and 309 nM in assay [3] (setting [5]). For the same compound, the Emax in assay [1] is 80.6%; in assay [2] it was -0.1%; in assay [3], 69.9%; in assay [4] it was 0.3%. For the same compound, the EC50 in assay [2] (setting [6]) and in assay [4] (setting [6]) was above 15100 nM each time.

For `COc1cc(N2C(=O)C3(CCC3)N(c3ccc(OC4CCN(C)CC4)nc3)C2=S)cnc1C#N` [Cpd 25], the Emax was 101% in assay [1], 0% in assay [2], 100% in assay [3] and 0.2% in assay [4]. For the same compound, the EC50 in assay [2] (setting [6]) and in assay [4] (setting [6]) was above 15100 nM each time.

Take `CN1CCC(Oc2ccc(N3C(=S)N(c4cnc(C#N)c(Cl)c4)C(=O)C34CCC4)cn2)CC1` [Cpd 26]: the results for the IC50 in assay [1] (setting [5]) and in assay [3] (setting [5]) were 55 nM and 69.2 nM, respectively. Further, the Emax was 101% in assay [1], 0.4% in assay [2], 100% in assay [3] and 0.5% in assay [4]. Besides, the EC50 in assay [2] (setting [6]) and in assay [4] (setting [6]) was above 15100 nM throughout.

With `Cc1cc(N2C(=O)C3(CCC3)N(c3ccc(OCCCN(C)C)nc3)C2=S)cnc1C#N` [Cpd 27, 5-[8-[6-[3-(dimethylamino)propoxy]-3-pyridyl]-5-oxo-7-thioxo-6,8-diazaspiro[3.4]octan-6-yl]-3-methyl-pyridine-2-carbonitrile], the IC50 in assay [1] (setting [5]) is 219 nM; in assay [3] (setting [5]), 107 nM. The Emax in assay [1] is 101%; in assay [2] it was 0%; in assay [3], 101%; in assay [4] it was -0.1%. The EC50 in assay [2] (setting [6]) and in assay [4] (setting [6]) was above 15100 nM in each case.

In the case of `CC(C)(C)OC(=O)N1CCN(C(=O)c2ccc(N3C(=S)N(c4cnc(C#N)c(C(F)(F)F)c4)C(=O)C34CCC4)cc2)CC1` [Cpd 32, tert-butyl 4-[4-[6-[6-cyano-5-(trifluoromethyl)-3-pyridyl]-5-oxo-7-thioxo-6,8-diazaspiro[3.4]octan-8-yl]benzoyl]piperazine-1-carboxylate], the IC50 in assay [1] (setting [5]) is 2140 nM; in assay [3] (setting [5]), 1120 nM. Also, the Emax is 64.9% in assay [1], 0.4% in assay [2], 74.1% in assay [3] and -0.1% in assay [4]. Moreover, the EC50 in assay [2] (setting [6]) and in assay [4] (setting [6]) was above 15100 nM each time.

Regarding `N#Cc1ncc(N2C(=O)C3(CCC3)N(c3ccc(O)nc3)C2=S)cc1Cl` [Cpd 45, 3-chloro-5-[8-(6-hydroxy-3-pyridyl)-5-oxo-7-thioxo-6,8-diazaspiro[3.4]octan-6-yl]pyridine-2-carbonitrile], the figures for the IC50 in assay [1] (setting [5]) and in assay [3] (setting [5]) were 3020 nM and 1260 nM, respectively. The Emax in assay [1] was 92.9%; in assay [2], -0.3%; in assay [3], 99.2%; in assay [4] it was 0%. Moreover, the EC50 in assay [2] (setting [6]) and in assay [4] (setting [6]) was above 15100 nM throughout.

On to `CC(C)(C)OC(=O)N1CCC(CNC(=O)c2ccc(N3C(=S)N(c4cnc(C#N)c(C(F)(F)F)c4)C(=O)C34CCC4)cc2)CC1` [Cpd 46, tert-butyl 4-[[[4-[6-[6-cyano-5-(trifluoromethyl)-3-pyridyl]-5-oxo-7-thioxo-6,8-diazaspiro[3.4]octan-8-yl]benzoyl]amino]methyl]piperidine-1-carboxylate], for which the figures for the IC50 in assay [1] (setting [5]) and in assay [3] (setting [5]) were 219 nM and 110 nM, respectively. For the same compound, the Emax is 101% in assay [1], 1.1% in assay [2], 97.6% in assay [3] and 0.3% in assay [4]. For the same compound, the EC50 in assay [2] (setting [6]) and in assay [4] (setting [6]) was above 15100 nM throughout.

`CC(C)(C)OC(=O)N1CCN(Cc2ccc(N3C(=S)N(c4cnc(C#N)c(C(F)(F)F)c4)C(=O)C34CCC4)cc2)CC1` [Cpd 47, tert-butyl 4-[[4-[6-[6-cyano-5-(trifluoromethyl)-3-pyridyl]-5-oxo-7-thioxo-6,8-diazaspiro[3.4]octan-8-yl]phenyl]methyl]piperazine-1-carboxylate]: the figures for the IC50 in assay [1] (setting [5]) and in assay [3] (setting [5]) were 316 nM and 145 nM, respectively. The Emax in assay [1] amounted to 100%; in assay [2], 0.7%; in assay [3], 100%; in assay [4], 0.5%. Moreover, the EC50 in assay [2] (setting [6]) and in assay [4] (setting [6]) was above 15100 nM each time.

Take `N#CCN1CCC(Oc2ccc(N3C(=S)N(c4cnc(C#N)c(Cl)c4)C(=O)C34CCC4)cc2)CC1` [Cpd 51, 3-chloro-5-[8-[4-[[1-(cyanomethyl)-4-piperidyl]oxy]phenyl]-5-oxo-7-thioxo-6,8-diazaspiro[3.4]octan-6-yl]pyridine-2-carbonitrile]: the IC50 in assay [1] (setting [5]) is 53.7 nM; in assay [3] (setting [5]), 24.5 nM. Besides, the Emax in assay [1] was 98%; in assay [2], 2.3%; in assay [3], 101%; in assay [4] it was 1.7%. Also, the EC50 in assay [2] (setting [6]) and in assay [4] (setting [6]) was above 15100 nM each time.

With `CC(C)(C)OC(=O)N1CC(F)(F)CC1COc1ccc(N2C(=S)N(c3cnc(C#N)c(C(F)(F)F)c3)C(=O)C23CCC3)cc1` (stereo not shown) [Cpd 56, tert-butyl 2-[[4-[6-[6-cyano-5-(trifluoromethyl)-3-pyridyl]-5-oxo-7-thioxo-6,8-diazaspiro[3.4]octan-8-yl]phenoxy]methyl]-4,4-difluoro-pyrrolidine-1-carboxylate], the IC50 in assay [1] (setting [5]) is 631 nM; in assay [3] (setting [5]) it was 676 nM. Also, the Emax in assay [1] amounted to 84.5%; in assay [2], 0.4%; in assay [3] it was 85.2%; in assay [4] it was 0.1%. Besides, the EC50 in assay [2] (setting [6]) and in assay [4] (setting [6]) was above 15100 nM each time.

Take `COC(=O)C1CCC(N2C(=S)N(c3cnc(C#N)c(C(F)(F)F)c3)C(=O)C23CCC3)CC1` (stereo not shown) [Cpd 57, Methyl 4-[6-[6-cyano-5-(trifluoromethyl)-3-pyridyl]-5-oxo-7-thioxo-6,8-diazaspiro[3.4]octan-8-yl]cyclohexanecarboxylate]: the IC50 in assay [1] (setting [5]) is 490 nM; in assay [3] (setting [5]) it was 200 nM. In addition, the Emax was 100% in assay [1], 0.3% in assay [2], 99.1% in assay [3] and 0.3% in assay [4]. Moreover, the EC50 in assay [2] (setting [6]) and in assay [4] (setting [6]) was above 15100 nM each time.

In the case of `CC(C)(C)OC(=O)N1C2CCC1C(F)C(Oc1ccc(N3C(=S)N(c4cnc(C#N)c(C(F)(F)F)c4)C(=O)C34CCC4)cc1)C2` (stereo not shown) [Cpd 85, tert-butyl 3-[4-[6-[6-cyano-5-(trifluoromethyl)-3-pyridyl]-5-oxo-7-thioxo-6,8-diazaspiro[3.4]octan-8-yl]phenoxy]-4-fluoro-8-azabicyclo[3.2.1]octane-8-carboxylate], in assay [1] (setting [5]), the “LNCaP-AR-wt ANT pIC50” value was found to be 6.46. Further, the Emax in assay [1] was 88.3%; in assay [2], -0.1%; in assay [3], 85.8%; in assay [4] it was 0.6%. The “LNCaP-AR-wt AG pEC50” value in assay [2] (setting [6]) is below 4.82. Moreover, in assay [3] (setting [5]), the “LNCaP-AR-F876L ANT pIC50” value was 6.37. Moreover, in assay [4] (setting [6]), the “LNCaP-AR-F876L AG pEC50” value is below 4.82.

`C=CCN1CCC(Oc2ccc(N3C(=S)N(c4cnc(C#N)c(Cl)c4)C(=O)C34CCC4)cn2)CC1` [Cpd 89, 5-[8-[6-[(1-allyl-4-piperidyl)oxy]-3-pyridyl]-5-oxo-7-thioxo-6,8-diazaspiro[3.4]octan-6-yl]-3-chloro-pyridine-2-carbonitrile]: the results for the IC50 in assay [1] (setting [5]) and in assay [3] (setting [5]) were 67.6 nM and 55 nM, respectively. Besides, the Emax in assay [1] is 101%; in assay [2], 0.2%; in assay [3] it was 98.4%; in assay [4], 3.3%. Besides, the EC50 in assay [2] (setting [6]) and in assay [4] (setting [6]) was above 15100 nM in each case.

Regarding `C=CCN1CCC(Oc2ccc(N3C(=S)N(c4cnc(C#N)c(C)c4)C(=O)C34CCC4)cn2)CC1` [Cpd 99, 5-[8-[6-[(1-allyl-4-piperidyl)oxy]-3-pyridyl]-5-oxo-7-thioxo-6,8-diazaspiro[3.4]octan-6-yl]-3-methyl-pyridine-2-carbonitrile], the IC50 in assay [1] (setting [5]) was 174 nM; in assay [3] (setting [5]) it was 72.4 nM. Also, the Emax in assay [1] is 101%; in assay [2], 0.5%; in assay [3], 99.7%; in assay [4], 0.2%. The EC50 in assay [2] (setting [6]) and in assay [4] (setting [6]) was above 15100 nM each time.

In the case of `CC(C)(C)OC(=O)NC1C(C)(C)C(Oc2ccc(N3C(=S)N(c4cnc(C#N)c(C(F)(F)F)c4)C(=O)C34CCC4)cc2)C1(C)C` (stereo not shown) [Cpd 110, tert-butyl N-[3-[4-[6-[6-cyano-5-(trifluoromethyl)-3-pyridyl]-5-oxo-7-thioxo-6,8-diazaspiro[3.4]octan-8-yl]phenoxy]-2,2,4,4-tetramethyl-cyclobutyl]carbamate], the IC50 was 132 nM in assay [1] (setting [5]) and 91.2 nM in assay [3] (setting [5]). Further, the Emax is 101% in assay [1], 0.3% in assay [2], 100% in assay [3] and 0.2% in assay [4]. Further, the EC50 in assay [2] (setting [6]) and in assay [4] (setting [6]) was above 15100 nM each time.
